In patent publication US5439905A, “Thienodiazepine compounds and their use” (Yoshitomi Pharmaceutical Industries, Ltd., priority 1993, dated 1995):
Like-named read-outs stand apart in the source and are kept apart here.

Columns and labels:
CCK receptor (pancreas) = molecular target: T1, CCK receptor (pancreas) (Canis lupus familiaris, UniProt Q5D0K2); experiment: CCK receptor-binding, pancreas (inhibition of 125I-CCK-8 binding); parameters: species or system male mongrel adult dog
T1 construct: the suspension was used as a receptor source; from tissue; host or cells: dog pancreas membranes
T1 sequence (Q5D0K2 1-428): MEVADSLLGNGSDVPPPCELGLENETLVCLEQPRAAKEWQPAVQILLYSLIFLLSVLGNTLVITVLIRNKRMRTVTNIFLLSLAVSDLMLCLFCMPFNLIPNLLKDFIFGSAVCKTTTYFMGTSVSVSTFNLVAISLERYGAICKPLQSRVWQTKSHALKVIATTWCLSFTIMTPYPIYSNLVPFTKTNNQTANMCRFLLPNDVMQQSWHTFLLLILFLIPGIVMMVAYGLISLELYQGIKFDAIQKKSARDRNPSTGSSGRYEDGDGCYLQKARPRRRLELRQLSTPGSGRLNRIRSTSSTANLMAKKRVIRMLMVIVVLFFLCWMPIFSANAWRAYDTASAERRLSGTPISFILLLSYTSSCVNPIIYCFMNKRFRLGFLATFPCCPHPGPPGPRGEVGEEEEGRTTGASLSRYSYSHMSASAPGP
Experimental: The entire pancreas of a male mongrel adult dog was extracted and the fat tissues thereof were removed. The residual portion was homogenized in 50 mM Tris hydrochloride (pH 7.5) (Blinkman.cndot.Polytron PT20). After the filtration with nylon cloth (120 mesh) and subsequent centrifugation (50,000×g, 12 minutes), the obtained sediment was homogenized in a Tris buffer solution in the same manner as mentioned above and the homogenate was centrifuged. The obtained sediment was suspended in a buffer solution for binding assay (5 mM magnesium chloride, 5 mM dithiothreitol, 2 mg/ml bovine serum albumin, 0.1 mg/ml bacitracin, and 50 mM Tris hydrochloride, pH 7.2) containing 0.14 mg/ml trypsin-inhibitor (soy bean), and the suspension was used as a receptor source.

CCK receptor (brain) = molecular target: T2, CCK receptor (brain); experiment: CCK receptor-binding, brain (inhibition of 125I-CCK-8 binding)
T2 construct: brain; from tissue

[1] = dog pancreas membranes, 125I-CCK-8, 20° C., 30 minutes, pH 7.2, read-out: CCK binding, IC50, pancreas

T2 sequence (P32239 whole entry): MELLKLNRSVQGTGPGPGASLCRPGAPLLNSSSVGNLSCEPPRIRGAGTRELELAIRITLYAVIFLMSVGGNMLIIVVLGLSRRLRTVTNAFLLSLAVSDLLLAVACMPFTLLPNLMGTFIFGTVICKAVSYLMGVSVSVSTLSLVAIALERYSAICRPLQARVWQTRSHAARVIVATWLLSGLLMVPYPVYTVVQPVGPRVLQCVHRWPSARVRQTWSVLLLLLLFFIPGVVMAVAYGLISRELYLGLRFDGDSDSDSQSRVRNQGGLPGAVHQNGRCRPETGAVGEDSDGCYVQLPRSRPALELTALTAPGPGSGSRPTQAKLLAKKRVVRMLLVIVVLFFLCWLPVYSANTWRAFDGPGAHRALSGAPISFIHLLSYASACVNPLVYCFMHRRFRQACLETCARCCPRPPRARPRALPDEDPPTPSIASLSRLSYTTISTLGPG

Molecule	IC50 (CCK receptor (pancreas)) [nM]	IC50 (CCK receptor (brain)) [nM]	IC50 (CCK receptor (pancreas); [1]) [nM]
CCc1cc2c(s1)N(C)C(=O)C(NC(=O)Nc1cccc(C)c1)N=C2c1ccccc1Cl (stereo not drawn) [Compound A, 4-(2-chlorophenyl)-2-ethyl-8-methyl-6-(3-(3-methylphenyl)ureido)-8H-6,7-dihydro-thieno[3,2-f]-[1,4]diazepin-7-one]	11	31	
CCc1cc2c(s1)-n1c(C)nnc1C(NC(=O)Nc1cccc(C)c1)N=C2c1ccccc1Cl (stereo not drawn) [Compound B, 4-(2-chlorophenyl)-2-ethyl-9-methyl-6-(3-(3-methylphenyl)ureido)-6H-thieno[3,2-f][1,2,4]-triazolo[4,3-a][1,4]diazepine]	1.2	10	
CCK-4 [reference compound]			800
CCK-8: CCK-8 which consists of 8 amino acids at the C terminus (of cholecystokinin); control compound [reference compound]			0.4
